Measured values as given in patent US8481678B2, “Peptide-based tooth whitening reagents” (E I du Pont de Nemours and Company, priority 2009, dated 2013).
Where no end group is shown, it is not given here. The star is where a group is joined. Biotin = O=C1N[C@H]2[C@H](CS[C@H]2CCCCC(=O)*)N1

How the values were obtained:
[1] = tested on: pellicle-coated HAP disks (tooth pellicle); experiment: Phage ELISA on pellicle-coated HAP disks; assay type: binding, human; details: over 10^10 pfu phage, TBST-0.5% washes, no-phage control 0.218
Description: A total of 20 selected phage candidates (Example 1) were used in a phage ELISA experiment. Purified phage lysates were used for binding to pellicle-coated HAP disks using an anti-M13 phage antibody conjugated to horseradish-peroxidase, followed by the addition of chromogenic agent TMB (3,3′,5,5′-tetramethylbenzidine), obtained from Pierce Biotechnology (Item #34021; Rockford, Ill.). The plates were read at A450 nm.
For each phage candidate to be tested, the pellicle-coated HAP disks (3 mm diameter) was incubated for 1 h at room temperature with 200 μL of blocking buffer, consisting of 2% non-fat dry milk (Schleicher & Schuell, Inc.) in TBS. […] The tube was rinsed 6 times with wash buffer consisting of TBST-0.05%. The wells were filled with 200 μL of TBST-0.5% containing 1 mg/mL BSA (bovine serum albumin) and then 10 μL (over 10^10 pfu) of purified phage stock was added. The samples were incubated at room temperature for 60 min with slow shaking. The non-binding phage were removed by washing 6 times with TBST-0.5%. Then, 100 μL of horseradish peroxidase/anti-M13 antibody conjugate (Amersham USA, Piscataway, N.J.), diluted 1:500 in the blocking buffer, was added and incubated for 1 hour at room temperature. The conjugate solution was removed and was washed 6 times with TBST-0.5%.

[2] = tested on: pellicle coated bovine enamel; experiment: Phage ELISA on pellicle-coated bovine enamel (30 min in vivo pellicle), Example 13; assay type: binding, human; details: 10^11 pfu, 30 min at 37° C., normalized to an internal control
Procedure: A total of 29 selected phage candidates from Table 14 were used in phage ELISA Experiment to determine binding affinity and coverage of each phage on pellicle substrates. Purified phage lysates were used for binding to pellicle coated bovine enamel using an anti-M13 phage antibody conjugated to horseradish-peroxidase, followed by the addition of chromogenic agent TMB, obtained from Pierce Biotechnology (Rockford, Ill.). The plates were read at A450nm.
The wells were filled with 1 mL of 10^11 pfu purified phage stock which was prepared by diluting in blocking buffer. […] The non-binding phage was removed by washing 5 times with PBST. […] The conjugate solution was removed and was washed 3 times with PBST.

[3] = tested on: pellicle-coated enamel substrates; details: 20 μM synthetic biotinylated peptide, 30 min at 37° C.; normalized to DenP03; three replicates; no peptide −0.001
Procedure: A total of 20 synthetic peptides were manufactured using sequences obtained from Table 14. Peptides were obtained from Synbiosci (Livermore, Calif.) and included an additional SSRP sequence (SEQ ID NO: 151) at the N-terminus and biotin labeled lysine at the C-terminus.
Enamel substrates were cut to approx. 7 mm squares and mounted on wax mounting for incubation in the mouth for 30 min to form a pellicle coated surface. The pellicle-coated enamel substrates were removed from the wax backing and placed in well plates with the pellicle surface exposed as in Example 1. Each pellicle-coated substrate was incubated for 1 h at room temperature (˜22° C.) with 1 mL of blocking buffer, consisting of 1 mg/mL BSA in PBST (Pierce BupH™ #28372 with 0.1% TWEEN® 20). The blocking buffer was removed by aspirating the liquid out of each well. The tube was rinsed 2 times with wash buffer consisting of PBST. The wells were filled with 500 μL of 20 μM peptide solution which was prepared by diluting in blocking buffer. The samples were incubated for 30 min with slow shaking at 37° C. The non-binding peptide was removed by washing 6 times with PBST. Then, 500 μL of horseradish peroxidase/streptavidin conjugate (Pierce #22127), diluted 1:2000 in PBST, was added and incubated for 1 h at room temperature. The conjugate solution was removed and was washed 4 times with PBST.
Each enamel substrate was removed from the well and washed again in a 15-mL test tube with 10 mL of PBST. Each enamel substrate was then mounted in a clean well plate with only the enamel surface exposed. A 1:1 solution of TMB substrate and H2O2 (200 μL), obtained from Pierce Biotechnology (Rockford, Ill.) was added to each well and the color was allowed to develop for between 10 to 20 min, typically for 15 min, at room temperature (˜22° C.). Then, 100 μL of solution from each well was transferred to a 96-well reading plate containing stop solution (100 μL of 2 M H2SO4) in each well. The A450 was measured using a microplate spectrophotometer (Molecular Devices, Sunnyvale, Calif.). […] Each sequence was tested with three replicate enamel coated pellicle substrates.

“AHPESLGIKYALDGNSDPHA (Tooth-binding peptide) [Pell 1]” was tested, and the “O.D. at 450 nm” value [1] was 0.739.
For “ANELSTYAQTNPGSG (Synthetic oral-surface binding peptide) [DenP 25]”, the “O.D. at 450 nm (normalized)” value [2] was 0.909.
With “APPTYQTASYPHNLPSKRKM (Synthetic oral-surface binding peptide) [DenP 28]” the “O.D. at 450 nm (normalized)” value [2] was 1.203.
For “ASVSNYPPIHHLATSNTTVN (Tooth-binding peptide) [Pell 2]”, the “O.D. at 450 nm” value [1] was 0.75.
With “AVVPADLNDHANHLS (Synthetic oral-surface binding peptide) [DenP 10]” the “O.D. at 450 nm (normalized)” value [2] was 1.619.
“DECMEPLNAAHCWR (Tooth-binding peptide) [Pell 3]” was tested, and the “O.D. at 450 nm” value [1] was 0.49.
For “DECMHGSDVEFCTS (Tooth-binding peptide) [Pell 4]”, the “O.D. at 450 nm” value [1] was 0.664.
With “DHNNRQHAVEVRENKTHTAR (Synthetic oral-surface binding peptide) [DenP 21]” the “O.D. at 450 nm (normalized)” value [2] was 0.728.
With “DLCSMQMMNTGCHY (Tooth-binding peptide) [Pell 5]” the “O.D. at 450 nm” value [1] was 0.83.
In the case of “DLCSSPSTWGSCIR (Tooth-binding peptide) [Pell 6]”, the “O.D. at 450 nm” value [1] was 0.735.
In the case of “DLGTFPNRTLKMAAH (Synthetic oral-surface binding peptide) [DenP 11]”, the “O.D. at 450 nm (normalized)” value [2] was 1.663.
For “DPNESNYENATTVSQPTRHL (Tooth-binding peptide) [Pell 7]”, the “O.D. at 450 nm” value [1] was 0.831.
In the case of “DTIHPNKMKSPSSPL (Synthetic oral-surface binding peptide) [DenP 26]”, the “O.D. at 450 nm (normalized)” value [2] was 1.039.
In the case of “EFPYYNDNPPNPERHTLR (Synthetic oral-surface binding peptide) [DenP 07]”, the “O.D. at 450 nm (normalized)” value [2] was 1.500.
“ELDHDSRHYMNGLQRKVT (Synthetic oral-surface binding peptide) [DenP 15]” was tested, and the “O.D. at 450 nm (normalized)” value [2] was 1.112.
“EPTHPTMRAQMHQSLRSSSP (Tooth-binding peptide) [Pell 8]” was tested, and the “O.D. at 450 nm” value [1] was 0.712.
For “FDGIGLGTATRHQNR (Synthetic oral-surface binding peptide) [DenP 12]”, the “O.D. at 450 nm (normalized)” value [2] was 2.079.
For “GMPTRYYHNTPPHLTPKF (Synthetic oral-surface binding peptide) [DenP 08]”, the “O.D. at 450 nm (normalized)” value [2] was 1.182.
In the case of “GNTDTTPPNAVMEPTVQHKW (Tooth-binding peptide) [Pell 9]”, the “O.D. at 450 nm” value [1] was 0.755.
In the case of “GPQHVLMQDTHQGYAFDN (Synthetic oral-surface binding peptide) [DenP 16]”, the “O.D. at 450 nm (normalized)” value [2] was 2.190.
“HDPNHLTHQARTIYRNANHT (Synthetic oral-surface binding peptide) [DenP 23]” was tested, and the “O.D. at 450 nm (normalized)” value [2] was 1.236.
With “HKNAIQPVNDATTLDTTM (Synthetic oral-surface binding peptide) [DenP 09]” the “O.D. at 450 nm (normalized)” value [2] was 1.364.
With “HKNENIMQYNVNDRWHITPA (Synthetic oral-surface binding peptide) [DenP 32]” the “O.D. at 450 nm (normalized)” value [2] was 1.441.
“IPWWNIRAPLNAGGG [Control, reference compound]” was tested, and the “O.D. at 450 nm (normalized)” value [2] was 1.000.
“IYPNESMSTSNVRGPYHP (Synthetic oral-surface binding peptide) [DenP 22]” was tested, and the “O.D. at 450 nm (normalized)” value [2] was 1.420.
In the case of “KAPIANMLQPHSYQYSVA (Synthetic oral-surface binding peptide) [DenP 18]”, the “O.D. at 450 nm (normalized)” value [2] was 1.143.
In the case of “NGNNHTDIPNRSSYTGGSFA (Synthetic oral-surface binding peptide) [DenP 01]”, the “O.D. at 450 nm (normalized)” value [2] was 1.002.
For “NGPDMVQSVGKHKNS (Tooth-binding peptide) [Pell 10]”, the “O.D. at 450 nm” value [1] was 0.729.
With “NGPEVRQIPANFEKL (Tooth-binding peptide) [Pell 11]” the “O.D. at 450 nm” value [1] was 0.607.
For “NNTSADNPPETDSKHHLSMS (Tooth-binding peptide) [Pell 12]”, the “O.D. at 450 nm” value [1] was 0.521.
With “NNTWPEGAGHTMPSTNIRQA (Tooth-binding peptide) [Pell 13]” the “O.D. at 450 nm” value [1] was 0.598.
For “NPTATPHMKDPMHSNAHSSA (Tooth-binding peptide) [Pell 14]”, the “O.D. at 450 nm” value [1] was 0.7.
In the case of “NPTDHIPANSTNSRVSKGNT (Tooth-binding peptide) [Pell 15]”, the “O.D. at 450 nm” value [1] was 0.567.
In the case of “NPTDSTHMMHARNHE (Tooth-binding peptide) [Pell 16]”, the “O.D. at 450 nm” value [1] was 0.578.
“QAAQVHMMQHSRPTT (Synthetic oral-surface binding peptide) [DenP 13]” was tested, and the “O.D. at 450 nm (normalized)” value [2] was 0.845.
For “QHCITERLHPPCTK (Tooth-binding peptide) [Pell 17]”, the “O.D. at 450 nm” value [1] was 0.614.
With “QVPDYLSPTHQKKAFLEIPT (Synthetic oral-surface binding peptide) [DenP 29]” the “O.D. at 450 nm (normalized)” value [2] was 0.976.
For “SEARARTFNDHTTPMPII (Synthetic oral-surface binding peptide) [DenP 14]”, the “O.D. at 450 nm (normalized)” value [2] was 2.498.
For “SNATMYNIQSHSHHQ (Synthetic oral-surface binding peptide) [DenP 24]”, the “O.D. at 450 nm (normalized)” value [2] was 0.979.
With “SSRPAPPTYQTASYPHNLPSKRKMK(Biotin) [DenP28-A]” the “O.D. at 450 nm (normalized)” value [3] was 0.811.
In the case of SSRPDLGTFPNRTLKMAAHK(Biotin) [DenP11-A], the “O.D. at 450 nm (normalized)” value [3] was 0.454.
In the case of “SSRPEFPYYNDNPPNPERHTLRK(Biotin) [DenP7-A]”, the “O.D. at 450 nm (normalized)” value [3] was 0.356.
For “SSRPELDHDSRHYMNGLQRKVTK(Biotin) [DenP15-A]”, the “O.D. at 450 nm (normalized)” value [3] was 0.460.
With SSRPFDGIGLGTATRHQNRK(Biotin) [DenP12-A] the “O.D. at 450 nm (normalized)” value [3] was 0.475.
In the case of “SSRPGPQHVLMQDTHQGYAFDNK(Biotin) [DenP16-A]”, the “O.D. at 450 nm (normalized)” value [3] was 0.309.
In the case of “SSRPHDPNHLTHQARTIYRNANHTK(Biotin) [DenP23-A]”, the “O.D. at 450 nm (normalized)” value [3] was 0.850.
For “SSRPIYPNESMSTSNVRGPYHPK(Biotin) [DenP22-A]”, the “O.D. at 450 nm (normalized)” value [3] was 0.354.
With “SSRPNGNNHTDIPNRSSYTGGSFAK(Biotin) [DenP1-A]” the “O.D. at 450 nm (normalized)” value [3] was 0.154.
SSRPQAAQVHMMQHSRPTTK(Biotin) [DenP13-A] was tested, and the “O.D. at 450 nm (normalized)” value [3] was 0.699.
“TMTNHVYNSYTEKHSSTHRS (Synthetic oral-surface binding peptide) [DenP 02]” was tested, and the “O.D. at 450 nm (normalized)” value [2] was 1.951.
In the case of “TNDLHANPFTGTYIAPDPTS (Synthetic oral-surface binding peptide) [DenP 30]”, the “O.D. at 450 nm (normalized)” value [2] was 1.082.
For “TPCAPASFNPHCSR (Tooth-binding peptide) [Pell 18]”, the “O.D. at 450 nm” value [1] was 0.416.
With “TPCATYPHFSGCRA (Tooth-binding peptide) [Pell 19]” the “O.D. at 450 nm” value [1] was 0.731.
“TTGSSSQADTSASMSIVPAH (Synthetic oral-surface binding peptide) [DenP 17]” was tested, and the “O.D. at 450 nm (normalized)” value [2] was 0.971.
“TYQGVPSWPAVIDDAIRR (Synthetic oral-surface binding peptide) [DenP 19]” was tested, and the “O.D. at 450 nm (normalized)” value [2] was 1.052.
For “VEPATKNMREARSSTQMRRI (Synthetic oral-surface binding peptide) [DenP 04]”, the “O.D. at 450 nm (normalized)” value [2] was 1.421.
In the case of “VNPNWVETQALHQPPGNT (Synthetic oral-surface binding peptide) [DenP 20]”, the “O.D. at 450 nm (normalized)” value [2] was 1.298.
In the case of “WCTDFCTRSTPTSTSRSTTS (Tooth-binding peptide) [Pell 20]”, the “O.D. at 450 nm” value [1] was 0.715.
In the case of “YLLPKDQTTAPQVTPIVQHK (Synthetic oral-surface binding peptide) [DenP 05]”, the “O.D. at 450 nm (normalized)” value [2] was 1.087.
